Source: ChEMBL document CHEMBL2150897, “Discovery of DS-8108b, a Novel Orally Bioavailable Renin Inhibitor” (ACS Med Chem Lett, 2012)
Where a chain is given by its changes, count along the chain named.

Legend:
[1] = Half life in cynomolgus monkey at 3 mg/kg, po; format: ADME, organism-based, Macaca fascicularis; set-up: dose 3 mg/kg, route oral; conditions: in vivo
[2] = Inhibition of human pepsin
[3] = Clearance in cynomolgus monkey at 3 mg/kg, iv; format: ADME, organism-based, Macaca fascicularis; set-up: dose 3 mg/kg, route intravenous; conditions: in vivo
Cynomolgus monkey [4] = experiment: Ex vivo inhibition of plasma renin activity in cynomolgus monkey at 3 mg/kg, po administered after furosemide treatment measured after 24 hrs; format: functional; conditions: Macaca fascicularis
Cynomolgus monkey [5] = experiment: Ex vivo inhibition of plasma renin activity in cynomolgus monkey at 10 mg/kg, po administered after furosemide treatment measured after 24 hrs; format: functional; conditions: Macaca fascicularis
Cynomolgus monkey [6] = experiment: Cardiotoxicity in telemetered cynomolgus monkey assessed as change in QTc interval at 1000 mg/kg, po administered as single dose measured up to 24 hrs; format: toxicity, organism-based, Macaca fascicularis; set-up: dose 1000 mg/kg, route oral; conditions: in vivo
[7] = molecular target: Voltage-gated inwardly rectifying potassium channel KCNH2 (Homo sapiens, UniProt Q12809); experiment: Inhibition of human ERG at 100 uM
Cynomolgus monkey [8] = experiment: Ex vivo inhibition of plasma renin activity in cynomolgus monkey at 3 to 10mg/kg, po administered after furosemide treatment measured after 24 hrs relative to aliskiren hemifumarate; format: functional, Macaca fascicularis
Salmonella typhimurium [9] = experiment: Mutagenic activity in Salmonella typhimurium; format: toxicity, organism-based; conditions: salmonella enterica subsp. enterica serovar typhimurium
Salmonella typhimurium [10] = experiment: Mutagenic activity in Salmonella typhimurium in presence of S9 mixture; format: toxicity, organism-based; conditions: salmonella enterica subsp. enterica serovar typhimurium
Cathepsin D = Cathepsin D (Homo sapiens, UniProt P07339); experiment: Inhibition of human cathepsin D
Renin [11] = molecular target: T1, Renin (Macaca fascicularis, UniProt Q6DLS0); experiment: Inhibition of cynomolgus monkey plasma renin activity after 60 mins by competitive RIA
T1 sequence (Q6DLS0 whole entry): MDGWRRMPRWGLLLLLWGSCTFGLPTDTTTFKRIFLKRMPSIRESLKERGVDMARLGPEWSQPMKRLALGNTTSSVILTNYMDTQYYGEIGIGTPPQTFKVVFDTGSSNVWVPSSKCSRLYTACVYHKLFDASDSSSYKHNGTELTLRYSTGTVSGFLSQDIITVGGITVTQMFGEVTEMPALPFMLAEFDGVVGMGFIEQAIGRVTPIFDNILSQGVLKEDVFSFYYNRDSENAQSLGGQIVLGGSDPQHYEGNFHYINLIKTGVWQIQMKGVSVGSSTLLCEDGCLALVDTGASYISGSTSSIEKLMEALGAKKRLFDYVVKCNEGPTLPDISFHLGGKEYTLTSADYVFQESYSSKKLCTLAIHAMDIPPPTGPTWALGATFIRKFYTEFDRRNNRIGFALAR

Cynomolgus monkey [12] = experiment: Antihypertensive activity in po dosed cynomolgus monkey assessed as reduction in mean arterial pressure administered as single dose 3 days prior to furosemide treatment measured up to 12 hrs; format: functional, organism-based; conditions: Macaca fascicularis; Artery
[13] = AUC ( 0 to t) in cynomolgus monkey at 3 mg/kg, po; format: ADME, organism-based, Macaca fascicularis; set-up: dose 3 mg/kg, route oral; conditions: plasma
Cynomolgus monkey [14] = experiment: Ex vivo inhibition of plasma renin activity in po dosed cynomolgus monkey administered after furosemide treatment measured up to 24 hrs; format: functional, organism-based; conditions: Macaca fascicularis
[15] = Oral bioavailability in cynomolgus monkey at 10 mg/kg; format: ADME, organism-based, Macaca fascicularis; conditions: in vivo
[16] = Cmax in cynomolgus monkey at 3 mg/kg, po; format: ADME, organism-based, Macaca fascicularis; set-up: dose 3 mg/kg, route oral; conditions: in vivo
[17] = Cmax in cynomolgus monkey at 10 mg/kg, po; format: ADME, organism-based, Macaca fascicularis; set-up: dose 10 mg/kg, route oral; conditions: in vivo
Renin [18] = molecular target: T2, Renin (Homo sapiens, UniProt P00797); experiment: Inhibition of human plasma renin activity after 60 mins by competitive RIA
T2 sequence (P00797 whole entry): T1 sequence (Q6DLS0 whole entry) with A68T, L214I, A235S

[19] = Half life in cynomolgus monkey at 10 mg/kg, po; format: ADME, organism-based, Macaca fascicularis; set-up: dose 10 mg/kg, route oral; conditions: in vivo
[20] = Volume of distribution at steady state in cynomolgus monkey at 3 mg/kg, iv; format: ADME, organism-based, Macaca fascicularis; set-up: dose 3 mg/kg, route intravenous; conditions: in vivo, read-out: Vdss
[21] = Half life in cynomolgus monkey at 3 mg/kg, iv; format: ADME, organism-based, Macaca fascicularis; set-up: dose 3 mg/kg, route intravenous; conditions: in vivo
[22] = AUC ( 0 to t) in cynomolgus monkey at 10 mg/kg, po; format: ADME, organism-based, Macaca fascicularis; set-up: dose 10 mg/kg, route oral; conditions: plasma
[23] = AUC ( 0 to t) in cynomolgus monkey at 3 mg/kg, iv; format: ADME, organism-based, Macaca fascicularis; set-up: dose 3 mg/kg, route intravenous; conditions: plasma
[24] = Oral bioavailability in cynomolgus monkey at 3 mg/kg; format: ADME, organism-based, Macaca fascicularis; conditions: in vivo
Cynomolgus monkey [25] = experiment: Cardiotoxicity in telemetered cynomolgus monkey assessed as change in QRS width at 1000 mg/kg, po administered as single dose measured up to 24 hrs; format: toxicity, organism-based, Macaca fascicularis; set-up: dose 1000 mg/kg, route oral; conditions: in vivo
Renin [26] = molecular target: T2, Renin; experiment: Inhibition of human recombinant renin compound treated for 10 mins before substrate addition measured after 90 mins by fluorescence method
[27] = molecular target: Sodium channel protein type 5 subunit alpha (Homo sapiens, UniProt Q14524); experiment: Inhibition of human Nav 1.5 at 100 uM
[28] = Tmax in cynomolgus monkey at 10 mg/kg, po; format: ADME, organism-based, Macaca fascicularis; set-up: dose 10 mg/kg, route oral; conditions: in vivo
[29] = Inhibition of HIV protease; set-up: species or system Human immunodeficiency virus
[30] = Inhibition of Cytochrome P450; format: ADME
[31] = Tmax in cynomolgus monkey at 3 mg/kg, po; format: ADME, organism-based, Macaca fascicularis; set-up: dose 3 mg/kg, route oral; conditions: in vivo
Cathepsin E = molecular target: T3, Cathepsin E (Homo sapiens, UniProt P14091); experiment: Inhibition of human cathepsin E
T3 sequence (P14091 whole entry): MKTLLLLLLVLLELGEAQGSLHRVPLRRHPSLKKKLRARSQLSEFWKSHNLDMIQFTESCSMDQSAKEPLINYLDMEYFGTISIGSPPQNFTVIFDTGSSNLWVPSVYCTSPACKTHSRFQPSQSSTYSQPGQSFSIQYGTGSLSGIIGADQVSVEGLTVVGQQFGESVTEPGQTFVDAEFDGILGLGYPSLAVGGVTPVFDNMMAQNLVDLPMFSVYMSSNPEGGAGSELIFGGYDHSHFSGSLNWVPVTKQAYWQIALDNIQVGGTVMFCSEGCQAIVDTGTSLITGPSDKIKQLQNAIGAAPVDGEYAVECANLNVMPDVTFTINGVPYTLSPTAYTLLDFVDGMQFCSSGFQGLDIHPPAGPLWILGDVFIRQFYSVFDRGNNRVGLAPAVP

Chain of Voltage-gated inwardly rectifying potassium channel KCNH2 (Q12809 whole entry): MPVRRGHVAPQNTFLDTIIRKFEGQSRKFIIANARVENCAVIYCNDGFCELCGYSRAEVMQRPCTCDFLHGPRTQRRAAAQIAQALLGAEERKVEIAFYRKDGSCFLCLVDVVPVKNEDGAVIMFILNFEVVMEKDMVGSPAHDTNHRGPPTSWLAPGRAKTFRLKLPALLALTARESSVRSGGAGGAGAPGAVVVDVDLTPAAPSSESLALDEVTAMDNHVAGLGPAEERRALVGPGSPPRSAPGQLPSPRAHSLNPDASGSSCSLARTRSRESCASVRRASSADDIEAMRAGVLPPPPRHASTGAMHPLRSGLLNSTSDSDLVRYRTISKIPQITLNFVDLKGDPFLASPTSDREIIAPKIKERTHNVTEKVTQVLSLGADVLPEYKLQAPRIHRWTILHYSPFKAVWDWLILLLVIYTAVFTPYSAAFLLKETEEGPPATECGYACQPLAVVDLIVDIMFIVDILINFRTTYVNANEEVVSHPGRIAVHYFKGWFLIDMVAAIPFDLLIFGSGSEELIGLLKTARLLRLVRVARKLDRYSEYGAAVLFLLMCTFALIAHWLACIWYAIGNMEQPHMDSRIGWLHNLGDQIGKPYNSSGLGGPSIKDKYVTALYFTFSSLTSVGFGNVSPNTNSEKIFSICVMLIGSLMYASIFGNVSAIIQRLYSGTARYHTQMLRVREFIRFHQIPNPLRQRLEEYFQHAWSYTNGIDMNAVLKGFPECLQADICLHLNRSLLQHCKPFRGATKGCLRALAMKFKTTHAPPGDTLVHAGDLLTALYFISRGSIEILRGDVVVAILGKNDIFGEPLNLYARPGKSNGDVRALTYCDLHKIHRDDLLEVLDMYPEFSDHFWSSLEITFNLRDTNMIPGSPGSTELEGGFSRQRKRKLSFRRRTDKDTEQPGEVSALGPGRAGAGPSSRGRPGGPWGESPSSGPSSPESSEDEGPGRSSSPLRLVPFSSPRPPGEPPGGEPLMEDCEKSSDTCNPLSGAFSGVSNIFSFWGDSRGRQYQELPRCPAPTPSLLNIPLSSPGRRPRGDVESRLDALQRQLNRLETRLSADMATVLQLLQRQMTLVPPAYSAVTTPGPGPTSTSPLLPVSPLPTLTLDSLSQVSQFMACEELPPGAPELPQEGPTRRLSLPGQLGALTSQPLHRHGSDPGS
Chain of Sodium channel protein type 5 subunit alpha (Q14524 whole entry): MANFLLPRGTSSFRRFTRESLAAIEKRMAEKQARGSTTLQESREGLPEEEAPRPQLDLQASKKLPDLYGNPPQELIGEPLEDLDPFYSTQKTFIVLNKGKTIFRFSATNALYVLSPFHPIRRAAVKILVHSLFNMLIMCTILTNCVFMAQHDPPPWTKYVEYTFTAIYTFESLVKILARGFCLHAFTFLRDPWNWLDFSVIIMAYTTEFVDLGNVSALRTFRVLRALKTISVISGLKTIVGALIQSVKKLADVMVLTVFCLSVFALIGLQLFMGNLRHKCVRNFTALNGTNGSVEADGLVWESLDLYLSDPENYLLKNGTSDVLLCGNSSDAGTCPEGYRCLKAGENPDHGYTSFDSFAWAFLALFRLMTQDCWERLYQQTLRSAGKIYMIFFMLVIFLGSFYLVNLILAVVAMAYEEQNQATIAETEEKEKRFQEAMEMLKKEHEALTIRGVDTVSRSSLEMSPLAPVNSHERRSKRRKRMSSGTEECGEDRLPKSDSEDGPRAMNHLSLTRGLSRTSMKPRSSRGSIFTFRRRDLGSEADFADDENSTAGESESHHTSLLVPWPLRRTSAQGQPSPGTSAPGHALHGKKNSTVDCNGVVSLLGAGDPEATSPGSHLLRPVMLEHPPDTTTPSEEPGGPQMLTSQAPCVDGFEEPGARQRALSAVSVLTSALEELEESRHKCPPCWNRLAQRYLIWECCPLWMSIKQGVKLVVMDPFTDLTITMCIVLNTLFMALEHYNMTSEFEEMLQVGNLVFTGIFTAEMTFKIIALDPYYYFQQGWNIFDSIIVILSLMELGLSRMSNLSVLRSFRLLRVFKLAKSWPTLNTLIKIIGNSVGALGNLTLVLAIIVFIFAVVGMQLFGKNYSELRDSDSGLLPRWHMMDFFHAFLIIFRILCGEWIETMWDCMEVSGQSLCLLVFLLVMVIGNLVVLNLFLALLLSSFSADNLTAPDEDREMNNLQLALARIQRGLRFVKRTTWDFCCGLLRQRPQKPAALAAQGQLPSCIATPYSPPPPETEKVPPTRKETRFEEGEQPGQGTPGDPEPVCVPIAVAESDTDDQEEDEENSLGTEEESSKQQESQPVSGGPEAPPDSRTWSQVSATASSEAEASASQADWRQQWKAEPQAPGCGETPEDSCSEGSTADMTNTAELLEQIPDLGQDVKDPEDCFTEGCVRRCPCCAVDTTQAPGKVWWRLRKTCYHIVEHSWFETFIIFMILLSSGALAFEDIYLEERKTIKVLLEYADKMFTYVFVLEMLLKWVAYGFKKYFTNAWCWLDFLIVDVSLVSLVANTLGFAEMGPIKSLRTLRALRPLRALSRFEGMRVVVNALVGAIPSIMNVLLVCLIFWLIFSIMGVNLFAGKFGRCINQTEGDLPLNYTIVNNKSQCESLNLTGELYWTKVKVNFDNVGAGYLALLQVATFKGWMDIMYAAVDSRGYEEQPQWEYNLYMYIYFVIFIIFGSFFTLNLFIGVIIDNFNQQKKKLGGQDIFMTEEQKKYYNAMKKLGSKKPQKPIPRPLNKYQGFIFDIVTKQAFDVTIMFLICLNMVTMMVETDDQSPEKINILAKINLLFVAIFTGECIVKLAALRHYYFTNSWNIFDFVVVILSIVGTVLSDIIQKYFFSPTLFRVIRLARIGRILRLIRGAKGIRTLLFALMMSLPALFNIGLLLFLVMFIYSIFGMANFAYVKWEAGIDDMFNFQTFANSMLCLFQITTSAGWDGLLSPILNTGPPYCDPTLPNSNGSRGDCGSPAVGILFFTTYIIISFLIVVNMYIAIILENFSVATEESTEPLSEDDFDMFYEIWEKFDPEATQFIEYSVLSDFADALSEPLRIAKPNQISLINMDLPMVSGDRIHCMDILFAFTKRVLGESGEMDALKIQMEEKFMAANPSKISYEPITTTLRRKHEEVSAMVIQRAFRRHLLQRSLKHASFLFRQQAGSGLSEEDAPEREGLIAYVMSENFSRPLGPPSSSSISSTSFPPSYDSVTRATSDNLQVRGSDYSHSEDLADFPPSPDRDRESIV
Chain of Cathepsin D (P07339 65-162 limits assumed): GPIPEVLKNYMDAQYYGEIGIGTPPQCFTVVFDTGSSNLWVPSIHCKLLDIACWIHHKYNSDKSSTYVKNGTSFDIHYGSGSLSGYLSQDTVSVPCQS
Chain of Cathepsin D (P07339 169-412 limits assumed): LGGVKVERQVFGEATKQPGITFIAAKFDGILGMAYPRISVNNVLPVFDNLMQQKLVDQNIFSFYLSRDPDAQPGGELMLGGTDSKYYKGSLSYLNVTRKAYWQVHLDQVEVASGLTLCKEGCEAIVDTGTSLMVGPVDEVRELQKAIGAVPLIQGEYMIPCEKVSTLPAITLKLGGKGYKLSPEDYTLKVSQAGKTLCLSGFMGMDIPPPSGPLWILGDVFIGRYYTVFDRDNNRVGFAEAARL

half-life [1]: 5.1 h | IC50 [2]: > 10000 nM | clearance [3]: 3.59 mL/min/kg | IC50 (Cathepsin D): > 10000 nM | IC50 (Renin [11]): 6.3 nM | AUC(0-t) [13]: 685 ng·h/mL | bioavailability [15]: 5.3% | Cmax [16]: 102 ng/mL | Cmax [17]: 399 ng/mL | IC50 (Renin [18]): 1.9 nM | half-life [19]: 5.4 h | Vd [20]: 1.12 L/kg | half-life [21]: 7.8 h | AUC(0-t) [22]: 2880 ng·h/mL | AUC(0-t) [23]: 15500 ng·h/mL | bioavailability [24]: 4.1% | IC50 (Renin [26]): 0.9 nM | Tmax [28]: 2.3 h | IC50 [29]: > 10000 nM | IC50 [30]: > 10000 nM | Tmax [31]: 3 h | IC50 (Cathepsin E): > 10000 nM
SMILES: CC[C@H](C[C@H](O)[C@@H](N)CN1CC(=O)N(c2ccccc2Cl)CC1(C)C)C(=O)NC1C2CC3CC1CC(O)(C3)C2.O.O=C(O)/C=C/C(=O)O (stereo partly drawn)
inhibition in vivo at 3 mg/kg (Cynomolgus monkey [4]): 65% | inhibition in vivo at 10 mg/kg (Cynomolgus monkey [5]): 65% | Activity (Cynomolgus monkey [6]): Non-toxic | inhibition (INH) [7]: Not Active | Ratio (Cynomolgus monkey [8]): 3 | Activity (Salmonella typhimurium [9]): Non-toxic | Activity (Salmonella typhimurium [10]): Non-toxic | Activity (Cynomolgus monkey [12]): Dose-dependent effect | inhibition (Cynomolgus monkey [14]): Dose-dependent effect | Activity (Cynomolgus monkey [25]): Non-toxic | inhibition (INH) [27]: Not Active
